Patent US11530181B2, “IL-6 inhibitors and methods of treatment” (University of Florida Research Foundation, Incorporated, priority 2018, dated 2022)

Columns and labels:
STAT4 phosphorylation = experiment: Western blot, STAT4 phosphorylation in MCF7; assay type: cell-based, human; settings: MCF7, pre-treatment 2, 3 and 4 hours
Method: FIG. 13. depicts the reduced effect on STAT1, STAT2, STAT4 and STAT6 phosphorylation by LLM418. The MCF7 cells were serum-starved overnight, then treated with LLM4 (15 μM) for 2, 3 and 4 hours. STAT1, STAT2, STAT4 and STAT6 phosphorylation were induced by INF-γ, INF-α and IL-4, respectively. The cells were harvested at 30 minutes and analyzed by western blot assays.
(§1) Cells were harvested and lysed in cold radioimmunoprecipitation assay (RIPA) lysis buffer containing proteasome inhibitor cocktail and phosphatase inhibitor cocktail. The protein concentrations were determined using the BCA Protein Assay kit. After adding the loading buffer and boiling at 95° C. for 10 minutes, equivalent amounts of proteins were loaded on and separated by SDS-PAGE, and then were transferred to PVDF membranes. Membranes were probed with primary antibodies (1:1000) against phospho-STAT3 (Tyr705), STAT3, phospho-STAT1 (Tyr701), STAT1, phospho-STAT6 (Tyr 641), STAT6, and GAPDH, respectively, and horseradish peroxidase (HRP)-conjugated secondary antibody (1:10000) (Cell Signaling Technology, Beverly, Mass.). Membranes were analyzed using Enhanced Chemiluminescence Plus reagents and either scanned with the Storm Scanner (Amersham Pharmacia Biotech, Inc., Piscataway, N.J.) or imaged with ChemiDoc MP imaging system (Bio-Rad, Hercules, Calif.). […] The cells were harvested after 30 minutes and analyzed by Western blot.

[1] = tested on: CT-1 induced STAT3 phosphorylation; experiment: Western blot, CT-1 induced STAT3 phosphorylation in MCF7; assay type: cell-based, human; settings: MCF7, 15 μM, time dependent
Method: as §1
(§2) MCF7 breast cancer cells were seeded in 10 cm plates (1 million cells per plate) and allowed to adhere overnight. […] The cells were harvested after 30 minutes and analyzed by western blotting.

[2] = tested on: MCF7 breast cancer cell line; experiment: MTT cell viability assay, MCF7; assay type: cell-based, human; settings: Homo sapiens; MCF7 (low IL-6), 48 h, 0% FBS medium
Method: (§3) Human breast cancer cell lines MCF7, MDA-MB-231 and SUM159 were maintained in Dulbecco's modified Eagle medium (DMEM). Human pancreatic cancer cell line BxPC-3 was maintained in RPMI 1640 medium. Human pancreatic cancer cell line Capan-1 was maintained in Iscove's Modified Dulbecco's Medium (IMEM). All media were supplemented with 10% FBS and 1% penicillin/streptomycin, and cells were incubated in a humidified 37° C. incubator with 5% CO2. PE/CA-PJ49 cell line was purchased from external sources and maintained according to manufacturer's protocol.
Cell viability was evaluated by using the MTT assay in triple replicates in one experiment and repeated for three times. Cancer cells were seeded in 96-well plates at a density of 3,000 cells per well. The cells were incubated at 37° C. for a period of 24 hours. […] After incubation for 48 or 72 hours, a stock solution of MTT (0.5 mg/ml) was then added to each well containing the treated cells, followed by incubation at 37° C. for 3 h. After removal of medium, the MTT dye was dissolved with spectrophotometric grade DMSO and the absorbance was read at 570 nm. The IC50 value is determined by interpolation based on the absorbance value halfway between positive and negative controls. […]

[3] = tested on: Capan-1 pancreatic cancer cell line; experiment: MTT cell viability assay, Capan-1; assay type: cell-based; settings: Homo sapiens
Method: as §3
Cell viability was evaluated by using the MTT assay in triple replicates in one experiment and repeated for three times. Cancer cells were seeded in 96-well plates at a density of 3,000 cells per well. The cells were incubated at 37° C. for a period of 24 hours. Escalating concentrations of IL-6/gp130 inhibitors were added in triplicate to the plates in the presence of 10% FBS. After incubation for 48 or 72 hours, a stock solution of MTT (0.5 mg/ml) was then added to each well containing the treated cells, followed by incubation at 37° C. for 3 h. After removal of medium, the MTT dye was dissolved with spectrophotometric grade DMSO and the absorbance was read at 570 nm. The IC50 value is determined by interpolation based on the absorbance value halfway between positive and negative controls. […]

[4] = tested on: IL-11 induced STAT3 phosphorylation; experiment: Western blot, IL-11 induced STAT3 phosphorylation in MCF7; assay type: cell-based, human; settings: MCF7, 15 μM, 2, 3 and 4 hours
Method: as §1, §2

| SMILES | effect on STAT4 phosphorylation (STAT4 phosphorylation) | CT-1 induced STAT3 phosphorylation [1] | IC50 [2] [µM] | IC50 [3] [µM] | inhibition of IL-11 induced STAT3 phosphorylation [4] |
| --- | --- | --- | --- | --- | --- |
| O=C(Nc1ccccc1-c1ccn[nH]1)c1ccc(OCCN2CCCCC2)cc1 [LLM418, N-(2-(1H-pyrazol-5-yl)phenyl)-4-(2-(piperidin-1-yl)ethoxy)benzamide] | little effect |  |  |  |  |
| O=C(Nc1cc(F)ccc1-n1cccc1)c1ccc(OCCCN2CCCCC2)cc1 [LLM4, N-(5-fluoro-2-(1H-pyrrol-1-yl)phenyl)-4-(3-(piperidin-1-yl)propoxy)benzamide] |  | minor influence | 4.51 | 35.1 | also inhibited IL-11 induced STAT3 phosphorylation |
